Measurements as given in PubChem BioAssay (NCI).
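The compound was tested at five concentrations on cells cultured in 96-well plates, with a 48-hour exposure period. GI50: concentration for 50% inhibition of growth. TGI is the concentration that stops growth completely.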

Key:
Assay in all cases: NCI anticancer screen, dose series, 48 h
[1] = system: 786-0 renal
[2] = system: SN12C renal
[3] = system: SF-295 CNS
[4] = system: SF-539 CNS
[5] = system: SK-MEL-28 melanoma
[6] = system: SNB-19 CNS
[7] = system: HOP-92 NSCLC
[8] = system: IGROV1 ovarian
[9] = system: TK-10 renal
[10] = system: CAKI-1 renal
[11] = system: UACC-257 melanoma
[12] = system: MDA-MB-435
[13] = system: NCI-H522 lung
[14] = system: EKVX NSCLC
[15] = system: LOX IMVI melanoma
[16] = system: A549 NSCLC
[17] = system: SNB-75 CNS
[18] = system: SR leukemia
[19] = system: ACHN renal
[20] = system: NCI/ADR-RES ovarian
[21] = system: MALME-3M melanoma
[22] = system: RPMI-8226 leukemia
[23] = system: OVCAR-3 ovarian
[24] = system: NCI-H460 lung
[25] = system: NCI-H226 lung
[26] = system: KM12 colon
[27] = system: OVCAR-4 ovarian
[28] = system: CCRF-CEM leukemia
[29] = system: U251 CNS
[30] = system: HL-60(TB) leukemia
[31] = system: BT-549 breast
[32] = system: A498 renal
[33] = system: PC-3 prostate
[34] = system: HCT-116 colon
[35] = system: SW-620 colon
[36] = system: SK-MEL-5 melanoma
[37] = system: COLO 205 colon
[38] = system: HT29 colon
[39] = system: UACC-62 melanoma
[40] = system: HOP-62 NSCLC
[41] = system: SF-268 CNS
[42] = system: K-562 leukemia
[43] = system: HCC-2998 colon
[44] = system: MDA-MB-231 breast
[45] = system: HS 578T breast
[46] = system: SK-MEL-2 melanoma
[47] = system: MCF7 breast
[48] = system: OVCAR-8 ovarian
[49] = system: M14 melanoma
[50] = system: OVCAR-5 ovarian
[51] = system: DU-145 prostate
[52] = system: HCT-15 colon
[53] = system: MOLT-4 leukemia
[54] = system: RXF 393 renal

**Q.** Which GI50 [1] does the source give for Nc1ncc(-c2ccc3ncnc(N4CCc5cc(F)c(Cl)cc54)c3c2)cn1 here?
**A.** 0.741 µM

**Q.** What about the TGI [1] of the same molecule?
**A.** > 100 µM

**Q.** And the GI50 [2]?
**A.** 1.06 µM

**Q.** And the TGI [2]?
**A.** > 100 µM

**Q.** What about the GI50 [3] of the same molecule?
**A.** 1.82 µM

**Q.** What about the TGI [3] of the same molecule?
**A.** > 100 µM

**Q.** What about the GI50 [4] of the same molecule?
**A.** 1.91 µM

**Q.** And the TGI [4]?
**A.** > 100 µM

**Q.** What about the GI50 [5] of the same molecule?
**A.** 2.64 µM

**Q.** And the TGI [5]?
**A.** > 100 µM

**Q.** What about the GI50 [6] of the same molecule?
**A.** 2.42 µM

**Q.** And the TGI [6]?
**A.** > 100 µM

**Q.** What about the GI50 [7] of the same molecule?
**A.** 0.323 µM

**Q.** What about the TGI [7] of the same molecule?
**A.** 3.71 µM

**Q.** What about the GI50 [8] of the same molecule?
**A.** 0.244 µM

**Q.** And the TGI [8]?
**A.** 1.27 µM

**Q.** What about the GI50 [9] of the same molecule?
**A.** 0.696 µM

**Q.** And the TGI [9]?
**A.** 7.41 µM

**Q.** What about the GI50 [10] of the same molecule?
**A.** 0.418 µM

**Q.** What about the TGI [10] of the same molecule?
**A.** 6.76 µM

**Q.** And the GI50 [11]?
**A.** 3.73 µM

**Q.** And the TGI [11]?
**A.** > 100 µM

**Q.** What about the GI50 [12] of the same molecule?
**A.** 2.61 µM

**Q.** What about the TGI [12] of the same molecule?
**A.** > 100 µM

**Q.** What about the GI50 [13] of the same molecule?
**A.** 2.8 µM

**Q.** And the TGI [13]?
**A.** > 100 µM

**Q.** And the GI50 [14]?
**A.** 0.499 µM

**Q.** What about the TGI [14] of the same molecule?
**A.** 10.1 µM

**Q.** What about the GI50 [15] of the same molecule?
**A.** 1.94 µM

**Q.** And the TGI [15]?
**A.** > 100 µM

**Q.** And the GI50 [16]?
**A.** 1.32 µM

**Q.** And the TGI [16]?
**A.** > 100 µM

**Q.** What about the GI50 [17] of the same molecule?
**A.** 0.162 µM

**Q.** What about the TGI [17] of the same molecule?
**A.** 1.85 µM

**Q.** And the GI50 [18]?
**A.** 2.25 µM

**Q.** What about the TGI [18] of the same molecule?
**A.** > 100 µM

**Q.** And the GI50 [19]?
**A.** 0.557 µM

**Q.** And the TGI [19]?
**A.** > 100 µM

**Q.** And the GI50 [20]?
**A.** 2.7 µM

**Q.** And the TGI [20]?
**A.** > 100 µM

**Q.** And the GI50 [21]?
**A.** 1.73 µM

**Q.** And the TGI [21]?
**A.** > 100 µM

**Q.** And the GI50 [22]?
**A.** 0.866 µM

**Q.** And the TGI [22]?
**A.** 5.44 µM

**Q.** What about the GI50 [23] of the same molecule?
**A.** 1.35 µM

**Q.** And the TGI [23]?
**A.** > 100 µM

**Q.** What about the GI50 [24] of the same molecule?
**A.** 1.04 µM

**Q.** And the TGI [24]?
**A.** > 100 µM

**Q.** What about the GI50 [25] of the same molecule?
**A.** 1.34 µM

**Q.** And the TGI [25]?
**A.** > 100 µM

**Q.** What about the GI50 [26] of the same molecule?
**A.** 3.36 µM

**Q.** What about the TGI [26] of the same molecule?
**A.** > 100 µM

**Q.** What about the GI50 [27] of the same molecule?
**A.** 2.86 µM

**Q.** And the TGI [27]?
**A.** > 100 µM

**Q.** And the GI50 [28]?
**A.** 1.6 µM

**Q.** What about the TGI [28] of the same molecule?
**A.** > 100 µM

**Q.** What about the GI50 [29] of the same molecule?
**A.** 3.26 µM

**Q.** What about the TGI [29] of the same molecule?
**A.** > 100 µM

**Q.** What about the GI50 [30] of the same molecule?
**A.** 1.13 µM

**Q.** What about the TGI [30] of the same molecule?
**A.** > 100 µM

**Q.** What about the GI50 [31] of the same molecule?
**A.** 1.06 µM

**Q.** What about the TGI [31] of the same molecule?
**A.** 7.34 µM

**Q.** What about the GI50 [32] of the same molecule?
**A.** 0.256 µM

**Q.** What about the TGI [32] of the same molecule?
**A.** 1.46 µM

**Q.** And the GI50 [33]?
**A.** 1.03 µM

**Q.** What about the TGI [33] of the same molecule?
**A.** > 100 µM

**Q.** What about the GI50 [34] of the same molecule?
**A.** 1.99 µM

**Q.** And the TGI [34]?
**A.** > 100 µM

**Q.** What about the GI50 [35] of the same molecule?
**A.** 2.51 µM

**Q.** What about the TGI [35] of the same molecule?
**A.** > 100 µM

**Q.** What about the GI50 [36] of the same molecule?
**A.** 2.29 µM

**Q.** What about the TGI [36] of the same molecule?
**A.** 11 µM

**Q.** And the GI50 [37]?
**A.** 1.91 µM

**Q.** What about the TGI [37] of the same molecule?
**A.** 16 µM

**Q.** And the GI50 [38]?
**A.** 1.77 µM

**Q.** What about the TGI [38] of the same molecule?
**A.** > 100 µM

**Q.** What about the GI50 [39] of the same molecule?
**A.** 0.731 µM

**Q.** And the TGI [39]?
**A.** 6.87 µM

**Q.** What about the GI50 [40] of the same molecule?
**A.** 1.45 µM

**Q.** And the TGI [40]?
**A.** > 100 µM

**Q.** And the GI50 [41]?
**A.** 1.02 µM

**Q.** And the TGI [41]?
**A.** > 100 µM

**Q.** What about the GI50 [42] of the same molecule?
**A.** 3.16 µM

**Q.** What about the TGI [42] of the same molecule?
**A.** > 100 µM

**Q.** What about the GI50 [43] of the same molecule?
**A.** 3.12 µM

**Q.** And the TGI [43]?
**A.** > 100 µM

**Q.** And the GI50 [44]?
**A.** 1.02 µM

**Q.** And the TGI [44]?
**A.** 14.3 µM

**Q.** And the GI50 [45]?
**A.** 0.406 µM

**Q.** What about the TGI [45] of the same molecule?
**A.** 3.06 µM

**Q.** And the GI50 [46]?
**A.** 2.43 µM

**Q.** And the TGI [46]?
**A.** 8.53 µM

**Q.** And the GI50 [47]?
**A.** 0.278 µM

**Q.** What about the TGI [47] of the same molecule?
**A.** > 100 µM

**Q.** What about the GI50 [48] of the same molecule?
**A.** 2.3 µM

**Q.** And the TGI [48]?
**A.** > 100 µM

**Q.** What about the GI50 [49] of the same molecule?
**A.** 2.86 µM

**Q.** What about the TGI [49] of the same molecule?
**A.** > 100 µM

**Q.** What about the GI50 [50] of the same molecule?
**A.** 1.16 µM

**Q.** And the TGI [50]?
**A.** > 100 µM

**Q.** What about the GI50 [51] of the same molecule?
**A.** 0.722 µM

**Q.** And the TGI [51]?
**A.** > 100 µM

**Q.** And the GI50 [52]?
**A.** 1.94 µM

**Q.** And the TGI [52]?
**A.** > 100 µM

**Q.** What about the GI50 [53] of the same molecule?
**A.** 1.83 µM

**Q.** And the TGI [53]?
**A.** 36.6 µM

**Q.** And the GI50 [54]?
**A.** 0.35 µM

**Q.** What about the TGI [54] of the same molecule?
**A.** 2.26 µM
